Results: patent publication US11857600B2, “GPCR heteromer inhibitors and uses thereof” (GPCR THERAPEUTICS, INC., priority 2017, dated 2024)
Read-outs that look alike come from different tables or passages of the source. Where a SMILES comes first, the peptide text is derived from it. Bridges are numbered along the chain shown (N, C = ends). [ ]: non-standard residue; d: D form. The star is where a group is joined. 2Nal = N[C@@H](Cc1ccc2ccccc2c1)C(=O)O; Benzoyl(4-F) = O=C(c1ccc(F)cc1)*; Cit = NC(=O)NCCC[C@H](N)C(=O)O

Key:
Assay type in all cases: cell-based
CXCR4-MLNR heteromer = target: T1, CXCR4-MLNR heteromer (Homo sapiens, UniProt O43193+P61073); assay: Calcium mobilization assay, enhanced signaling of CXCR4-MLNR heteromer in MDA-MB-231 cells; conditions: CXCR4 inhibitor only; CXCL12 20 nM and motilin 0.2 nM; read-out: IC50 of Ca2+ response, MLNR inhibitor: None
T1 construct: expressed in transfected cells
T1 sequence (P61073 whole entry): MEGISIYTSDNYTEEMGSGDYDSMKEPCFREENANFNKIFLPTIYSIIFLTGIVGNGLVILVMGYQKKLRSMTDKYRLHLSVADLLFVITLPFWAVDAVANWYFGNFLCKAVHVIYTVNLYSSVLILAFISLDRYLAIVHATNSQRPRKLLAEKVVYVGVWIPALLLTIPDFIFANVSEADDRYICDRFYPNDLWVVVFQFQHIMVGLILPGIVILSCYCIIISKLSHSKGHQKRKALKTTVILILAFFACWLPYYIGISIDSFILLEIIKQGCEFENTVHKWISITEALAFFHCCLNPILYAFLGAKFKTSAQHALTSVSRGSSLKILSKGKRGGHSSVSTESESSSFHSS
T1 sequence (O43193 whole entry): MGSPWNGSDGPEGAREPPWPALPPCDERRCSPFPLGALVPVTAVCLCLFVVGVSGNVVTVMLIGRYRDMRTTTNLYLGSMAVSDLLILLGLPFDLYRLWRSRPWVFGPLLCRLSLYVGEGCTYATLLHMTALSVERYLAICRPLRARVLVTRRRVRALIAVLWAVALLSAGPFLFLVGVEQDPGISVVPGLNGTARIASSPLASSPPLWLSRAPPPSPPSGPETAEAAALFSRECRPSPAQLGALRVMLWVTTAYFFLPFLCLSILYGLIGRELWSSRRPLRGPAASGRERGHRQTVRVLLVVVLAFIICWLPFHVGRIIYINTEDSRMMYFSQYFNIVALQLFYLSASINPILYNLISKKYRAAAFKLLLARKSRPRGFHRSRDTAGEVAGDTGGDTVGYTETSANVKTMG
Experimental: (§1) Inhibitors were treated 30 min before agonist stimulation. Ca2+ mobilization was measured as described in FIG. 5, and IC50 values were calculated using GraphPad Prism software.

CXCR4-CALCR heteromer = CXCR4-CALCR heteromer (Homo sapiens, UniProt P30988+P61073); assay: Calcium mobilization assay, enhanced signaling of CXCR4-CALCR heteromer in MDA-MB-231 cells; conditions: CXCR4 inhibitor only; CXCL12 20 nM and calcitonin 100 nM; read-out: IC50 of Ca2+ response, CALCR inhibitor: None
CXCR4-CALCR heteromer, sequence (P61073 whole entry): as the sequence (P61073 whole entry) above
CXCR4-CALCR heteromer, sequence (P30988 25-474): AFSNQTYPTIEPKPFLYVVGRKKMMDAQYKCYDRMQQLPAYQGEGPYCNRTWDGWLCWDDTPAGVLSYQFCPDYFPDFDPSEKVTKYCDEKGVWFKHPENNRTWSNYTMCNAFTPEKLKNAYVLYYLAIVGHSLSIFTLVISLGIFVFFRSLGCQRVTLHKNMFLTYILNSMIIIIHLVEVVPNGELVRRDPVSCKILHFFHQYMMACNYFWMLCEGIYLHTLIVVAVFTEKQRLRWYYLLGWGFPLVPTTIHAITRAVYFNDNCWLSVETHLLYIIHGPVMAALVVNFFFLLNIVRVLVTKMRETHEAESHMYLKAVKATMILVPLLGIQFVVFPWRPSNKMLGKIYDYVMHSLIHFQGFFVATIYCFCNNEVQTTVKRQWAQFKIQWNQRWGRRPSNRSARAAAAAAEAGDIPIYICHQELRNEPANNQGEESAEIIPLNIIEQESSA
Experimental: as §1

CXCR4-ADRB2 heteromer = target: T2, CXCR4-ADRB2 heteromer (Homo sapiens, UniProt P07550+P61073); assay: Calcium mobilization assay, enhanced signaling of CXCR4-ADRB2 heteromer in MDA-MB-231 cells; conditions: CXCR4 inhibitor only
T2 construct: expressed in transfected cells
T2 sequence (P61073 whole entry): as the sequence (P61073 whole entry) above
T2 sequence (P07550 whole entry): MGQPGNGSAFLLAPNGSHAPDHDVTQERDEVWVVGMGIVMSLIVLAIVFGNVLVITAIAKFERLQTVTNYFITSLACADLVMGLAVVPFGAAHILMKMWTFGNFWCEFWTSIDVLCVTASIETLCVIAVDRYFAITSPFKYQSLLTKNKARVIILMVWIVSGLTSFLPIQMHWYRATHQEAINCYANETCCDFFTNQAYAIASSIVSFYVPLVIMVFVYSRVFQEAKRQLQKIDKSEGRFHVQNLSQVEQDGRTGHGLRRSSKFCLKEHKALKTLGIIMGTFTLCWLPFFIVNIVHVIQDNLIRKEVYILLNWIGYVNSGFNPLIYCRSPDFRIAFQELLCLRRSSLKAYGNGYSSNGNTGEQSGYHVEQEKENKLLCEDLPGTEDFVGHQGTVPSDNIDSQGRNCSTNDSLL

CXCR4 = target: T3, CXCR4 (Homo sapiens, UniProt P61073); assay: Calcium mobilization assay in MDA-MB-231 cells expressing CXCR4 alone; conditions: cells expressing CXCR4 alone; CXCR4 inhibitor only; stimulated with CXCL12 20 nM and Salmeterol 1 μM; read-out: CXCR4 IC50 of Ca2+ response
T3 construct: expressed in transfected cells
T3 sequence (P61073 whole entry): as the sequence (P61073 whole entry) above
Experimental: The cells were then stained with Cal-6 for 2 hours and stimulated with CXCR4 agonsit (CXCL12; 20 nM) and ADRB2 agonist (Salmeterol; 1 μM).

CXCR4-EDNRB heteromer = target: T4, CXCR4-EDNRB heteromer (Homo sapiens, UniProt P24530+P61073); assay: Calcium mobilization assay, enhanced signaling of CXCR4-EDNRB heteromer in MDA-MB-231 cells; conditions: CXCR4 inhibitor only; CXCL12 20 nM and BQ3020 0.5 nM; read-out: IC50 of Ca2+ response, EDNRB inhibitor: None
T4 construct: expressed in transfected cells
T4 sequence (P61073 whole entry): as above
T4 sequence (P24530 27-442): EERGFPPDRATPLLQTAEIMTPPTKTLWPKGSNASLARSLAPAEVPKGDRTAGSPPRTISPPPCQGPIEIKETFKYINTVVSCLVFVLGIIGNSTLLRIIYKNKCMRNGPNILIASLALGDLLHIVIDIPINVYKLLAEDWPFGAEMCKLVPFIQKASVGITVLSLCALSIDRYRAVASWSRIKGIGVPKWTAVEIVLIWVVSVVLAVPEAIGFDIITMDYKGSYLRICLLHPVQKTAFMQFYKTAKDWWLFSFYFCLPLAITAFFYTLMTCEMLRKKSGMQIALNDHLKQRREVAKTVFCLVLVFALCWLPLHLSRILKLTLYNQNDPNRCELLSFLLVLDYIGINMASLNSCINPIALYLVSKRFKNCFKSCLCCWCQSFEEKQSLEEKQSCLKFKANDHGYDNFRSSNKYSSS
Experimental: (§2) The efficiency of CXCR4 inhibitors in suppressing the enhanced signaling of CXCR4-EDNRB heteromer was measured in the absence or presence of the representative EDNRB inhibitors ambrisentan or bosentan (Table 12). […] Inhibitors were treated 30 min before agonist stimulation. Ca2+ mobilization was measured as described in FIG. 5, and IC50 values were calculated using GraphPad Prism software.

[1] = target: CXCR4-ADCYAP1R1 heteromer (Homo sapiens, UniProt P41586+P61073); assay: Calcium mobilization assay, enhanced signaling of CXCR4-ADCYAP1R1 heteromer in MDA-MB-231 cells; conditions: CXCR4 inhibitor only; CXCL12 20 nM and PACAP-38 1 nM; read-out: IC50 of Ca2+ response, ADCYAP1R1 inhibitor: None
CXCR4-ADCYAP1R1 heteromer, sequence (P61073 whole entry): as the sequence (P61073 whole entry) above
CXCR4-ADCYAP1R1 heteromer, sequence (P41586 21-468): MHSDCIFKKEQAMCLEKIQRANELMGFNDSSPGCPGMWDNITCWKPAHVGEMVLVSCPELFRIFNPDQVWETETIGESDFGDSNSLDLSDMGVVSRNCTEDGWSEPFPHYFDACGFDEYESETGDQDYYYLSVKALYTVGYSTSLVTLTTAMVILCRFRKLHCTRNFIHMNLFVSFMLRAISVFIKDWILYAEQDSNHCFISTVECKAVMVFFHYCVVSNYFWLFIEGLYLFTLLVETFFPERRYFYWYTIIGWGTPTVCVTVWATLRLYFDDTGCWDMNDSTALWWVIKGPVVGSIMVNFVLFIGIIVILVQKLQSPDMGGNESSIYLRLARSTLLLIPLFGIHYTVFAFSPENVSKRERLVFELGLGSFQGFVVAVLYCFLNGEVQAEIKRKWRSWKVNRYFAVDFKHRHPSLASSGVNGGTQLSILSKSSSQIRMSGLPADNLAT
Experimental: as §1

CXCR4-C5AR1 heteromer = target: T5, CXCR4-C5AR1 heteromer (Homo sapiens, UniProt P21730+P61073); assay: Calcium mobilization assay, enhanced signaling of CXCR4-C5AR1 heteromer in MDA-MB-231 cells; conditions: CXCR4 inhibitor only; CXCL12 20 nM and C5a 0.03 nM; read-out: IC50 of Ca2+ response, C5AR1 inhibitor: None
T5 construct: expressed in transfected cells
T5 sequence (P61073 whole entry): as the sequence (P61073 whole entry) above
T5 sequence (P21730 whole entry): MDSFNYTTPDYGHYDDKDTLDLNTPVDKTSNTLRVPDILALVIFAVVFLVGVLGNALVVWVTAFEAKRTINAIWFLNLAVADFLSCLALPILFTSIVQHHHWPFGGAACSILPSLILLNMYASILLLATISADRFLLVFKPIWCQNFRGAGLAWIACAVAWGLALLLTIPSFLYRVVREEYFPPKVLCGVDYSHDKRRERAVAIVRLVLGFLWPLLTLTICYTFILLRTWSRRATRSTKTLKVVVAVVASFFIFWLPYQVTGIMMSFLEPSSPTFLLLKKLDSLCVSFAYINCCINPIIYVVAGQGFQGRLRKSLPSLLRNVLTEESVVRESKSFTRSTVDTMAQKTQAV
Experimental: as §1

CXCR4-TACR3 heteromer = target: T6, CXCR4-TACR3 heteromer (Homo sapiens, UniProt P29371+P61073); assay: Calcium mobilization assay, enhanced signaling of CXCR4-TACR3 heteromer in MDA-MB-231 cells; conditions: CXCR4 inhibitor only; CXCL12 20 nM and neurokinin B 0.3 nM; read-out: IC50 of Ca2+ response, TACR3 inhibitor: None
T6 construct: expressed in transfected cells
T6 sequence (P61073 whole entry): as the sequence (P61073 whole entry) above
T6 sequence (P29371 whole entry): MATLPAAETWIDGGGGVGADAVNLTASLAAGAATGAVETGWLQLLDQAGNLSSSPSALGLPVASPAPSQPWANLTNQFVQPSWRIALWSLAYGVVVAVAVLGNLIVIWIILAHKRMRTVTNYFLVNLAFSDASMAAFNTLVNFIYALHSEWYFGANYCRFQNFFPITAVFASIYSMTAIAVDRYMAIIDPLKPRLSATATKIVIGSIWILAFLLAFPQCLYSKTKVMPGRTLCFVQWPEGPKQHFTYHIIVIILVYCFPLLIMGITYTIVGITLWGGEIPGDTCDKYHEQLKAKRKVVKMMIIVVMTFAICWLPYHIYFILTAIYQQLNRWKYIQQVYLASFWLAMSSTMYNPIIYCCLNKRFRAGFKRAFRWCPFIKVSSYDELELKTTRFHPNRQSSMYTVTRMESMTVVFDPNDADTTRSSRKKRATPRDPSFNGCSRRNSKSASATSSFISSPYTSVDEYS
Experimental: as §1

CXCR4-HRH1 heteromer = target: T7, CXCR4-HRH1 heteromer (Homo sapiens, UniProt P35367+P61073); assay: Calcium mobilization assay, enhanced signaling of CXCR4-HRH1 heteromer in MDA-MB-231 cells; conditions: CXCR4 inhibitor only; CXCL12 20 nM and Histamine 1 nM; read-out: IC50 of Ca2+ response, HRH1 inhibitor: None
T7 construct: expressed in transfected cells
T7 sequence (P61073 whole entry): as the sequence (P61073 whole entry) above
T7 sequence (P35367 whole entry): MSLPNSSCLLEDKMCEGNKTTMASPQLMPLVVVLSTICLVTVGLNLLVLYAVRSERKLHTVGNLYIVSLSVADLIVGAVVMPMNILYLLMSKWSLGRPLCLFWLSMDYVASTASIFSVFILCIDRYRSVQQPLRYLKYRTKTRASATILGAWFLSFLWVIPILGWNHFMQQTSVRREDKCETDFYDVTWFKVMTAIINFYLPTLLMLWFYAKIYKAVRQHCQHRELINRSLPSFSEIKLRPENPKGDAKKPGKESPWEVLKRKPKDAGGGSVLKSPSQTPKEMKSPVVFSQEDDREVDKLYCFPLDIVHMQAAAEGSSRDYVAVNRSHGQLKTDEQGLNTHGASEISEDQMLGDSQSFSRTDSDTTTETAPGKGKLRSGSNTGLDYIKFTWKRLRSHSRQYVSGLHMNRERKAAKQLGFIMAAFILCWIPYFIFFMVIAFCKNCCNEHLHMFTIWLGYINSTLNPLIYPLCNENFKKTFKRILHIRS
Experimental: as §2, with “CXCR4-HRH1” for “CXCR4-EDNRB”, “HRH1” for “EDNRB”, “Hydroxyzine, Prometazine,” for “ambrisentan”, “Cyproheptadine” for “bosentan”, “8).” for “12).”

## N=C(N)NCCC[C@H](NC(=O)[C@@H]1CSSC[C@H](NC(=O)[C@H](Cc2ccc3ccccc3c2)NC(=O)[C@H](CCCNC(=N)N)NC(=O)[C@H](CCCNC(=N)N)NC(=O)c2ccc(F)cc2)C(=O)N[C@@H](Cc2ccc(O)cc2)C(=O)N[C@@H](CCCNC(N)=O)C(=O)N[C@@H](CCCCN)C(=O)N[C@H](CCCCN)C(=O)N2CCC[C@H]2C(=O)N[C@@H](Cc2ccc(O)cc2)C(=O)N[C@@H](CCCNC(=N)N)C(=O)N[C@@H](CCCNC(N)=O)C(=O)N1)C(N)=O [BKT140] ({Benzoyl(4-F)}-RR[2Nal]CY[Cit]K[dK]PYR[Cit]CR-NH2; disulfide 4-13; C-terminus assumed)
CXCR4-MLNR heteromer
  IC50: 644 ± 163 nM
CXCR4-CALCR heteromer
  IC50: 1040 ± 757 nM
CXCR4-ADRB2 heteromer; CXCR4 + ADRB2 (−Carvedilol) IC50 of Ca2+ response, stimulated with CXCL12 20 nM and Salmeterol 1 μM
  IC50: 130 ± 49.8 nM
CXCR4-ADRB2 heteromer; Table 7, CXCL12 20 nM and Salmeterol 1 μM, read-out: IC50 of Ca2+ response, ADRB2 inhibitor: None
  IC50: 124 ± 76.9 nM
CXCR4
  IC50: 434 ± 4.38 nM
CXCR4-EDNRB heteromer
  IC50: 2680 ± 3930 nM
[1]
  IC50: 213 ± 143 nM
CXCR4-C5AR1 heteromer
  IC50: 118 ± 56.5 nM
CXCR4-TACR3 heteromer
  IC50: 1500 ± 420 nM
CXCR4-HRH1 heteromer
  IC50: 232 ± 91.9 nM
